The pIC50 is the IC50 on a negative log10 scale, so that one unit is a factor of ten.

pIC50: −log10 of the molar value. Bridge positions count the residues as written; N and C are the ends. Square brackets hold non-standard residues; d marks the D form. Peptide text beside a SMILES is read from it. * marks the point of attachment. ξ: configuration not given here. Bip = N[C@@H](Cc1ccc(-c2ccccc2)cc1)C(=O)O; Phe(3-Me) = Cc1cccc(C[C@H](N)C(=O)O)c1; hArg = N=C(N)NCCCC[C@H](N)C(=O)O; 4Pal = N[C@@H](Cc1ccncc1)C(=O)O; Cha = N[C@@H](CC1CCCCC1)C(=O)O; Thr(3ξ) = CC(O)[C@H](N)C(=O)O; 3Abz = Nc1cccc(C(=O)O)c1; Carboxymethyl = O=C(O)C*; Orn = NCCC[C@H](N)C(=O)O; Aun = NCCCCCCCCCCC(=O)O; Dab = NCC[C@H](N)C(=O)O; Dap = NC[C@H](N)C(=O)O; AEEA = NCCOCCOCC(=O)O

This is an account of results in patent US20260022142A1, “MACROCYCLIC IMMUNOMODULATORS” (Bristol-Myers Squibb Company, priority 2022, published 2026).

The experiment deals with T1, PD-1/PD-L1 interaction (PE-labeled human PD-L1-Ig binding to Jurkat cell line over-expressing human PD-1) (Homo sapiens, UniProt Q15116).
T1 construct: expressed in transfected cells; host or cells: Jurkat
T1 sequence (Q15116 25-288): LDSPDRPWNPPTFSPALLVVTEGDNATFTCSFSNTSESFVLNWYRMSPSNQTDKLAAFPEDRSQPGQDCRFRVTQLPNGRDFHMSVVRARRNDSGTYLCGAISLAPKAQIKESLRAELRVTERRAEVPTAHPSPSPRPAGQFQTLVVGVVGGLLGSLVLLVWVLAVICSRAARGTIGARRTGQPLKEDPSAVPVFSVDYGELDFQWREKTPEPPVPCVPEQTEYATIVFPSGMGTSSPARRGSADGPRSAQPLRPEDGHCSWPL
Description: Jurkat-PD-1 Cell Binding High-Content Screening Assay (CBA). It is filed as cell-based. The settings on record: Jurkat cell line over-expressing human PD-1; PE-labeled PD-L1-Ig 20 nM final; read-out: Jurkat hPD1-PDL1 IC50. Summed up:
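Human PD-L1-Ig carrying a covalent PE label on its Ig tag serves as the probe, applied at 20 nM final to compound-treated (2 h, 37° C) Jurkat-hPD-1 cells in medium with 10% fetal calf serum. After one hour, fixation and nuclear staining precede high-content image analysis.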
Consider `CC(C)C[C@@H]1NC(=O)[C@H](Cc2c[nH]c3ccccc23)NC(=O)[C@H](CC(=O)O)NC(=O)[C@H](Cc2ccc(OCC(=O)O)cc2)NC(=O)[C@H](CN)NC(=O)CSC[C@@H](C(=O)N[C@@H](CCN)C(=O)NCCCCCCCCCCC(=O)O)NC(=O)[C@@H](CO)NC(=O)[C@H](C(C)C)NC(=O)[C@H](CC2CCCCC2)NC(=O)[C@H](CCN)NC(=O)[C@@H](CC(C)C)NC(=O)[C@H](CCCN)NC(=O)[C@H](C(C)C)NC(=O)[C@H](Cc2ccc(-c3ccccc3)cc2)NC1=O` [Compound 2018] ({CH2CO}-[Dap]Y(Carboxymethyl)DWL[Bip]V[Orn][dL][Dab][Cha]V[dS]C[Dab][Aun]-OH; thioether N-14), for which the pIC50 is 7.39.
With `CC(=O)NCCCC[C@@H]1NC(=O)[C@H](Cc2ccc(-c3ccccc3)cc2)NC(=O)[C@H](Cc2ccc(O)cc2)NC(=O)[C@H](Cc2cccc(C)c2)NC(=O)[C@H](CC(=O)O)NC(=O)[C@H](Cc2ccc(OCC(=O)O)cc2)NC(=O)[C@H](CCCNC(=N)N)NC(=O)CSC[C@@H](C(=O)N[C@H](CC(N)=O)C(=O)NCCCCCCCCCCC(=O)O)NC(=O)[C@H](C(C)O)NC(=O)[C@H](C(C)C)NC(=O)[C@H](CC2CCCCC2)NC(=O)[C@H](CCN)NC(=O)[C@@H](CC(C)C)NC(=O)[C@H](CCC(N)=O)NC1=O` (stereo partly drawn) [Compound 3543] ({CH2CO}-RY(Carboxymethyl)D[Phe(3-Me)]Y[Bip]K(Ac)Q[dL][Dab][Cha]V[Thr(3ξ)]C[dN][Aun]-OH; thioether N-14) the figure was 7.88.
As to `CC(C)C[C@@H]1NC(=O)[C@H](Cc2c[nH]c3ccccc23)NC(=O)[C@H](CC(=O)O)NC(=O)[C@H](Cc2ccncc2)NC(=O)[C@H](Cc2ccc(OCC(=O)O)cc2)NC(=O)CSC[C@@H](C(=O)Nc2cccc(C(=O)NCCCCCCCCCCC(=O)O)c2)NC(=O)[C@H](CCN)NC(=O)[C@H](C(C)C)NC(=O)[C@H](CC2CCCCC2)NC(=O)[C@H](CCN)NC(=O)[C@@H](CC(C)C)NC(=O)[C@H](CCCN)NC(=O)[C@H](C(C)C)NC(=O)[C@H](Cc2ccc(-c3ccccc3)cc2)NC1=O` [Compound 1228] ({CH2CO}-Y(Carboxymethyl)[4Pal]DWL[Bip]V[Orn][dL][Dab][Cha]V[Dab]C[3Abz][Aun]-OH; thioether N-14), the pIC50 was 6.51.
Take `Cc1cccc(C[C@@H]2NC(=O)[C@H](CC(=O)O)NC(=O)[C@H](Cc3ccc(OCC(=O)O)cc3)NC(=O)[C@H](CCCCNC(=N)N)NC(=O)CSC[C@@H](C(=O)NCCOCCOCC(=O)N[C@@H](CCN)C(=O)NCCCCCCCCCCC(=O)O)NC(=O)[C@H](CCCN)NC(=O)[C@H](C(C)C)NC(=O)[C@H](CC3CCCCC3)NC(=O)[C@H](CCN)NC(=O)[C@@H](CC(C)C)NC(=O)[C@H](CCN)NC(=O)[C@H](C(C)C)NC(=O)[C@H](Cc3ccc(-c4ccccc4)cc3)NC(=O)[C@H](C(C)C)NC2=O)c1` [Compound 3251] ({CH2CO}-[hArg]Y(Carboxymethyl)D[Phe(3-Me)]V[Bip]V[Dab][dL][Dab][Cha]V[Orn]C[AEEA][Dab][Aun]-OH; thioether N-14): the pIC50 is 8.24.
Then `Cc1cccc(C[C@@H]2NC(=O)[C@H](CC(=O)O)NC(=O)[C@H](Cc3ccc(OCC(=O)O)cc3)NC(=O)[C@H](C(C)O)NC(=O)CSC[C@@H](C(=O)N[C@@H](CCN)C(=O)NCCCCCCCCCCC(=O)O)NC(=O)[C@H](CO)NC(=O)[C@H](Cc3cnc[nH]3)NC(=O)[C@H](CC3CCCCC3)NC(=O)[C@H](CCN)NC(=O)[C@@H](CC(C)C)NC(=O)[C@H](CCCN)NC(=O)[C@H](Cc3ccc(OCC(=O)O)cc3)NC(=O)[C@H](Cc3ccc(-c4ccccc4)cc3)NC(=O)[C@H](Cc3ccc(OCC(=O)O)cc3)NC2=O)c1` (stereo partly drawn) [Compound 3697] ({CH2CO}-[Thr(3ξ)]Y(Carboxymethyl)D[Phe(3-Me)]Y(Carboxymethyl)[Bip]Y(Carboxymethyl)[Orn][dL][Dab][Cha]HSC[Dab][Aun]-OH; thioether N-14), with 7.95.
